# Earlier results as cited in patent publication US8097423B2, “MN/CA IX and breast cancer therapy” (Institute of Virology, priority 2008, dated 2012).
# Experiments:
# [1] = test system: T2-4 N0-1 breast cancer; conditions: breast cancer patients, primary systemic treatment, four cycles before surgery; no significant difference between arms
# [2] = Phase I and II clinical trials
# [3] = weak basic drug
compound,measurement,setting,value
COc1cccc2c1C(=O)c1c(O)c3c(c(O)c1C2=O)C[C@@](O)(C(=O)CO)C[C@@H]3O[C@H]1C[C@H](N)[C@@H](O)[C@H](C)O1 [epirubicin],treatment responses,[1],76%
Rencarex®: an MN-specific drug,tolerability / drug-related side effects,[2],"well-tolerated, with no serious drug-related side effects"
"CC/C(=C(\c1ccccc1)c1ccc(OCCN(C)C)cc1)c1ccccc1 [Tamoxifen, tamoxifen]",pKa,[3],8.8
